Measurements taken from US10080757B2 (WISCONSIN ALUMNI RESEARCH FOUNDATION, priority 2016, dated 2018).
Converted amounts (≈) assume the structure as drawn. Like-named read-outs stand apart in the source and are kept apart here.

Legend:
recombinant MtbUGM = target: T1, recombinant MtbUGM (Mycobacterium tuberculosis, UniProt P9WIQ1); assay: biochemical; conditions: for inhibition at 100 µM: read-out: % inhib MtbUGM (100 μM); for inhibition at 10 µM: read-out: % inhib MtbUGM (10 μM)
T1 construct: made in house
T1 sequence (P9WIQ1 whole entry): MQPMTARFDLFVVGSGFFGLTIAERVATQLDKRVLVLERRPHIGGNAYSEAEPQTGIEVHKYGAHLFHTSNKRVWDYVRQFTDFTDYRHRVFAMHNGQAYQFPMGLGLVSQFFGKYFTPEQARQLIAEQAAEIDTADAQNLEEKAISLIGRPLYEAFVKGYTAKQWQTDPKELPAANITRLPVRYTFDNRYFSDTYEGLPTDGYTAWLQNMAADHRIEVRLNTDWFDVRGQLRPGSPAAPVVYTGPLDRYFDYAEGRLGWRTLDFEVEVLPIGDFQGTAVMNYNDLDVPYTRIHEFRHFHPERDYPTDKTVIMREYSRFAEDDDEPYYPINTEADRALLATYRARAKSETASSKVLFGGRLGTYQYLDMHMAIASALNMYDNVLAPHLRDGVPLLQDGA

M. smegmatis [1] = assay: Microplate Alamar Blue Assay (MIC, liquid culture); assay type: cell-based; conditions: Mycolicibacterium smegmatis
Protocol: The culture was diluted to OD600=˜0.02 in LB liquid media and added to 96-well plates at a final volume of 100 μL, with added inhibitor concentrations in two-fold dilutions. Perimeter wells were filled with sterile water. After 24 hours at 37° C. in a shaking incubator, 10 μL of the Alamar Blue reagent was added to each well. The plate was incubated for an additional 4 hours at 37° C., at which point fluorescence emission at 585 nm was measured using a plate reader. The lowest inhibitor concentration at which 99% or greater growth inhibition was observed was determined to be the MIC.

CeUGM = CeUGM inhibition; assay type: biochemical, C. elegans
C. elegans = C. elegans growth and proliferation; assay type: in vivo; conditions: 250 μM
M. smegmatis [2] = assay: Agar disk diffusion assay; design: zone of inhibition: dose or concentration left out as unconfirmed
Protocol: M. smegmatis was grown to saturation over 48 hours at 37° C. in Middlebrook 7H9 media with Albumin Dextrose Catalase (ADC) enrichment and 0.05% Tween80. The culture was diluted to OD600=˜0.2 in LB liquid media and 100 μL of dilute culture was spread onto LB agar plates, then allowed to soak into the agar for 1 hour at room temperature. Sterile disks (3 mm diameter) were impregnated with a solution of inhibitor in DMSO (1.5 μL) and placed on top of the bacterial lawn. […] The plates were incubated for 72 hours at 37° C., at which point a lawn of bacteria was visible. Zones of inhibition were measured as the average diameter of the region around a cloning disk where bacterial growth was not visible. For each disk, three diameter measurements were taken and averaged.

[3] = 50 μM, mean of two replicates, read-out: % inhib MtbUGM (50 μM)
[4] = read-out: % inhib MtbUGM (50 μM)

SMILES | inhibition at 50 µM (recombinant MtbUGM; [3]) | inhibition at 100 µM (recombinant MtbUGM; 100 μM, mean of two replicates) | other results
O=C(O)CC1Sc2nnc(Cc3ccc(Br)cc3)n2N=C1c1ccc(Cl)cc1 (stereo not shown) [Compound 11, 2-(3-(4-bromobenzyl)-6-(4-chlorophenyl)-7H-[1,2,4]triazolo[3,4-b][1,3,4]thiadiazin-7-yl)acetic acid] | 36% | 72% | IC50 (recombinant MtbUGM; Table 4): 80 ± 29 µM; MIC (M. smegmatis [1]; Table 4): 500 µM (≈ 239 µg/mL); CeUGM % Inhibition at 10 μM (CeUGM): 53.5 ± 3.0%; Effective inhibitor of C. elegans growth at 250 μM (C. elegans; Table 8): No
Cc1ccc(C2=Nn3c(Cc4ccc(Br)cc4)nnc3SC2CC(=O)O)cc1 (stereo not shown) [Compound 21, 2-(3-(4-bromobenzyl)-6-(p-tolyl)-7H-[1,2,4]triazolo[3,4-b][1,3,4]thiadiazin-7-yl)acetic acid] | 32% | 63% | 
O=C(O)CC1Sc2nnc(Cc3ccc(-c4ccccc4)cc3)n2N=C1c1ccc(Cl)cc1 (stereo not shown) [Compound 29, 2-(3-([1,1′-biphenyl]-4-ylmethyl)-6-(4-chlorophenyl)-7H-[1,2,4]triazolo[3,4-b][1,3,4]thiadiazin-7-yl)acetic acid] | 100% | 100% | 
O=C(CC1Sc2nnc(Cc3ccc(Br)cc3)n2N=C1c1ccc(Cl)cc1)NS(=O)(=O)c1cccs1 (stereo not shown) [Compound 36] |  |  | inhibition at 10 µM (recombinant MtbUGM): 18%; inhibition at 50 µM (recombinant MtbUGM; [4]): 87%; inhibition at 100 µM (recombinant MtbUGM): 100%
O=C(CC1Sc2nnc(Cc3ccc(Br)cc3)n2N=C1c1ccc(Cl)cc1)NS(=O)(=O)c1ccc(Cl)s1 (stereo not shown) [Compound 37] |  |  | inhibition at 10 µM (recombinant MtbUGM): 35%; inhibition at 50 µM (recombinant MtbUGM; [4]): 100%; inhibition at 100 µM (recombinant MtbUGM): 100%
COC(=O)CC1Sc2nnc(-c3cccs3)n2N=C1c1ccc(Cl)cc1 (stereo not shown) [Compound 32, Methyl-2-(6-(4-chlorophenyl)-3-(thiophen-2-yl)-7H-[1,2,4]triazolo[3,4-b][1,3,4]thiadiazin-7-yl)acetate] |  | 20% | 
O=C(CC1Sc2nnc(Cc3ccc(-c4ccccc4)cc3)n2N=C1c1ccc(Cl)c(Cl)c1)NS(=O)(=O)c1ccccc1 (stereo not shown) [Compound 40] |  |  | inhibition at 10 µM (recombinant MtbUGM): 85%; inhibition at 50 µM (recombinant MtbUGM; [4]): 100%; inhibition at 100 µM (recombinant MtbUGM): 100%
COC(=O)C(Cc1ccc(I)cc1)Nc1nc(-c2ccc(Cl)c(Cl)c2)cs1 (stereo not shown) [Compound 10, Methyl 2-((4-(3,4-dichlorophenyl)thiazol-2-yl)amino)-3-(4-iodophenyl)propanoate] |  |  | inhibition at 50 µM (recombinant MtbUGM; 50 μM compound (FIG. 1), read-out: Inhibition of MtbUGM activity): 30%; Effective inhibitor of C. elegans growth at 250 μM (C. elegans; Table 7): No; Mycobacterial growth inhibition (in words) (M. smegmatis [2]; disk diffusion, solid media): no mycobacterial growth inhibition was observed
O=C(O)CC1Sc2nnc(Cc3ccc(Br)cc3)n2N=C1c1ccc(Br)cc1 (stereo not shown) [Compound 19, 2-(3-(4-bromobenzyl)-6-(4-bromophenyl)-7H-[1,2,4]triazolo[3,4-b][1,3,4]thiadiazin-7-yl)acetic acid] | 67% | 90% | 
COc1ccc(C2=Nn3c(Cc4ccc(Br)cc4)nnc3SC2CC(=O)O)cc1 (stereo not shown) [Compound 22, 2-(3-(4-bromobenzyl)-6-(4-methoxyphenyl)-7H-[1,2,4]triazolo[3,4-b][1,3,4]thiadiazin-7-yl)acetic acid] | 35% | 44% | 
Cn1cnc(S(=O)(=O)NC(=O)CC2Sc3nnc(Cc4ccc(Br)cc4)n3N=C2c2ccc(Cl)cc2)c1 (stereo not shown) [Compound 38] |  |  | inhibition at 50 µM (recombinant MtbUGM; [4]): 36%; inhibition at 100 µM (recombinant MtbUGM): 68%
O=C(O)CC1Sc2nnc(Cc3ccc(Br)cc3)n2N=C1c1ccc(C(F)(F)F)cc1 (stereo not shown) [Compound 20, 2-(3-(4-bromobenzyl)-6-(4-(trifluoromethyl)phenyl)-7H-[1,2,4]triazolo[3,4-b][1,3,4]thiadiazin-7-yl)acetic acid] | 11% | 57% | 
CS(=O)(=O)NC(=O)CC1Sc2nnc(Cc3ccc(Br)cc3)n2N=C1c1ccc(Cl)cc1 (stereo not shown) [Compound 12, 2-(3-(4-bromobenzyl)-6-(4-chlorophenyl)-7H-[1,2,4]triazolo[3,4-b][1,3,4]thiadiazin-7-yl)-N-(methylsulfonyl)acetamide] | 50% | 58% | IC50 (recombinant MtbUGM; Table 4): 108 ± 42 µM; MIC (M. smegmatis [1]; Table 4): 500 µM (≈ 277 µg/mL); CeUGM % Inhibition at 10 μM (CeUGM): 68.1 ± 2.1%; Effective inhibitor of C. elegans growth at 250 μM (C. elegans; Table 8): No
O=C(CC1Sc2nnc(Cc3ccc(Br)cc3)n2N=C1c1ccc(Cl)c(Cl)c1)NS(=O)(=O)c1ccccc1 (stereo not shown) [Compound 39] |  |  | inhibition at 10 µM (recombinant MtbUGM): 51%; inhibition at 50 µM (recombinant MtbUGM; [4]): 100%; inhibition at 100 µM (recombinant MtbUGM): 100%
Cc1ccc(C2=Nn3c(Cc4ccc(Br)cc4)nnc3SC2CC(=O)O)cc1C (stereo not shown) [Compound 17, 2-(3-(4-bromobenzyl)-6-(3,4-dimethylphenyl)-7H-[1,2,4]triazolo[3,4-b][1,3,4]thiadiazin-7-yl)acetic acid] | 41% | 80% | 
O=C(O)CC1Sc2nnc(Cc3ccc(Br)cc3)n2N=C1c1ccc(F)cc1 (stereo not shown) [Compound 23, 2-(3-(4-bromobenzyl)-6-(4-fluorophenyl)-7H-[1,2,4]triazolo[3,4-b][1,3,4]thiadiazin-7-yl)acetic acid] | 25% | 39% | 
O=C(O)CC1Sc2nnc(-c3cccs3)n2N=C1c1ccc(Cl)c(Cl)c1 (stereo not shown) [Compound 18, 2-(6-(3,4-dichlorophenyl)-3-(thiophen-2-yl)-7H-[1,2,4]triazolo[3,4-b][1,3,4]thiadiazin-7-yl)acetic acid] |  | 80% | 
O=C(O)CC1Sc2nnc(-c3cccs3)n2N=C1c1ccc(Cl)cc1 (stereo not shown) [Compound 15, 2-(6-(4-chlorophenyl)-3-(thiophen-2-yl)-7H-[1,2,4]triazolo[3,4-b][1,3,4]thiadiazin-7-yl)acetic acid] |  | 50% | 
COc1ccc(S(=O)(=O)NC(=O)C(Cc2ccc(I)cc2)Nc2nc(-c3ccc(Cl)c(Cl)c3)cs2)cc1 (stereo not shown) [Compound 6, 2-((4-(3,4-dichlorophenyl)thiazol-2-yl)amino)-3-(4-iodophenyl)-N-((4-methoxyphenyl)sulfonyl)propanamide] |  |  | IC50 (recombinant MtbUGM; Table 2, standard deviation, n = 3): 18 ± 9 µM; MIC (M. smegmatis [1]; Table 3, liquid media, at least 99% growth inhibition): 25 µM (≈ 17.2 µg/mL); CeUGM % Inhibition at 2.5 μM (CeUGM; 2.5 μM): 92.4 ± 1.2%; Effective inhibitor of C. elegans growth at 250 μM (C. elegans; Table 7): No; zone of inhibition (M. smegmatis [2]; Mycolicibacterium smegmatis, read-out: Inhibition zone): 6 ± 0.1 mm
C=CCNC(=O)CC1Sc2nnc(Cc3ccc(Br)cc3)n2N=C1c1ccc(Cl)cc1 (stereo not shown) [Compound 35, N-allyl-2-(3-(4-bromobenzyl)-6-(4-chlorophenyl)-7H-[1,2,4]triazolo[3,4-b][1,3,4]thiadiazin-7-yl)acetamide] |  | 0% | 
O=C(O)CC1Sc2nnc(CCc3ccc(Br)cc3)n2N=C1c1ccc(Cl)cc1 (stereo not shown) [Compound 27, 2-(3-(4-bromophenethyl)-6-(4-chlorophenyl)-7H-[1,2,4]triazolo[3,4-b][1,3,4]thiadiazin-7-yl)acetic acid] | 48% | 69% | 
COC(=O)CC1Sc2nnc(Cc3ccc(Br)cc3)n2N=C1c1ccc(Cl)cc1 (stereo not shown) [Compound 14, Methyl-2-(3-(4-bromobenzyl)-6-(4-chlorophenyl)-7H-[1,2,4]triazolo[3,4-b][1,3,4]thiadiazin-7-yl)acetate] |  | 0% | Effective inhibitor of C. elegans growth at 250 μM (C. elegans; Table 8): No
O=C(O)CC1Sc2nnc(Cc3ccccc3)n2N=C1c1ccc(Cl)cc1 (stereo not shown) [Compound 28, 2-(3-benzyl-6-(4-chlorophenyl)-7H-[1,2,4]triazolo[3,4-b][1,3,4]thiadiazin-7-yl)acetic acid] | 30% | 43% | 
O=C(O)CC1Sc2nnc(Cc3ccc4ccccc4c3)n2N=C1c1ccc(Cl)cc1 (stereo not shown) [Compound 30, 2-(6-(4-chlorophenyl)-3-(naphthalen-2-ylmethyl)-7H-[1,2,4]triazolo[3,4-b][1,3,4]thiadiazin-7-yl)acetic acid] | 49% | 88% | 
O=C(O)CC1Sc2nnc(-c3ccc(Br)cc3)n2N=C1c1ccc(Cl)cc1 (stereo not shown) [Compound 26, 2-(3-(4-bromophenyl)-6-(4-chlorophenyl)-7H-[1,2,4]triazolo[3,4-b][1,3,4]thiadiazin-7-yl)acetic acid] | 23% | 41% | 
O=C(O)CC1Sc2nnc(Cc3ccc(-c4ccccc4)cc3)n2N=C1c1ccc(Cl)c(Cl)c1 (stereo not shown) [Compound 31, 2-(3-([1,1′-biphenyl]-4-ylmethyl)-6-(3,4-dichlorophenyl)-7H-[1,2,4]triazolo[3,4-b][1,3,4]thiadiazin-7-yl)acetic acid] | 100% | 100% | inhibition at 10 µM (recombinant MtbUGM; 10 μM, mean of two replicates): 50%
O=C(O)CC1Sc2nnc(Cc3ccc(Br)cc3)n2N=C1c1ccc(Cl)c(Cl)c1 (stereo not shown) [Compound 16, 2-(3-(4-bromobenzyl)-6-(3,4-dichlorophenyl)-7H-[1,2,4]triazolo[3,4-b][1,3,4]thiadiazin-7-yl)acetic acid] | 78% | 95% | 
Cc1ccc(C2=Nn3c(Cc4ccc(Br)cc4)nnc3SC2CC(=O)O)c(C)c1 (stereo not shown) [Compound 24, 2-(3-(4-bromobenzyl)-6-(2,4-dimethylphenyl)-7H-[1,2,4]triazolo[3,4-b][1,3,4]thiadiazin-7-yl)acetic acid] | 1% | 0% | 
C=CCNC(=O)CC1Sc2nnc(-c3cccs3)n2N=C1c1ccc(Cl)cc1 (stereo not shown) [Compound 34, N-allyl-2-(6-(4-chlorophenyl)-3-(thiophen-2-yl)-7H-[1,2,4]triazolo[3,4-b][1,3,4]thiadiazin-7-yl)acetamide] |  | 0% | 
